Data set [1] can be described thus: Gravimetric Vapour Sorption (GVS) of crystalline material. Type of data set: physicochemical. The conditions noted are these: at 80% RH. As for the experimental part:
Gravimetric Vapour Sorption (GVS) profiles were measured using a Surface Measurements Systems Dynamic Vapour Sorption DVS-1 or a DVS Advantage instrument. The solid sample ca. 1-5 mg was placed into a glass vessel and the weight of the sample was recorded during a dual cycle step method (40 to 90 to 0 to 90 to 0% relative humidity (RH), in steps of 10% RH).

Data set [2] can be described thus: Dynamic vapour sorption (DVS) analysis of crystalline material. The class given is physicochemical. The note with it: at 80% RH, 25° C. As for the experimental part:
Dynamic vapour sorption (DVS) analysis was performed on a Surface Measurement systems (SMS) DVS-Intrinsic moisture sorption analyser. The instrument was controlled by SMS Analysis Suite software (DVS-Intrinsic Control v1.0.0.30). Analysis of the data was performed using Microsoft Excel 2007 together DVS Standard Analysis Suite (v6.0.0.7). Sample temperature was maintained at 25° C. and the sample humidity was obtained by mixing streams of wet and dry nitrogen at a total flow rate of 200 mlmin^−1. The relative humidity was measured using a calibrated Rotronic probe (dynamic range 1-100% Relative Humidity (RH)) located close to the sample. The weight change of the sample as a function of % RH was constantly monitored by the microbalance (accuracy±0.005 mg). Typically a PXRD would be run prior to analysis. 20 mg of sample was then placed in a tared stainless steel mesh basket under ambient conditions. The sample was loaded and unloaded at 40% RH and 25° C. (typical room conditions) and the sample subjected to a graduated DVS regime over 2 cycles using the parameters shown in Table 1.

Another data set addresses T1, Adrenergic β2 (Homo sapiens, UniProt P07550).
T1 construct: endogenous in cells; host or cells: H292 cells
Description: Adrenergic β2 mediated cAMP production in H292 cells (AlphaScreen). Type of data set: cell-based. The note with it: Intrinsic Activity as a fraction relative to the maximum activity of formoterol. The protocol:
Adrenergic β2 Mediated cAMP Production
H292 cells were grown in 225 cm2 flasks incubator at 37° C., 5% CO2 in RPMI medium containing, 10% (v/v) FBS (foetal bovine serum) and 2 mM L-glutamine.
Adherent H292 cells were removed from tissue culture flasks by treatment with Accutase™ cell detachment solution for 15 minutes. Flasks were incubated for 15 minutes in a humidified incubator at 37° C., 5% CO2. Detached cells were re-suspended in RPMI media (containing 10% (v/v) FBS and 2 mM L-glutamine) at 0.05×10^6 cells per mL. 5000 cells in 100 μL were added to each well of a tissue-culture-treated 96-well plate and the cells incubated overnight in a humidified incubator at 37° C., 5% CO2. The culture media was removed and cells were washed twice with 100 μL assay buffer and replaced with 50 μL assay buffer (HBSS solution containing 10 mM HEPES pH7.4 and 5 mM glucose). Cells were rested at room temperature for 20 minutes after which time 25 μL of rolipram (1.2 mM made up in assay buffer containing 2.4% (v/v) dimethylsulphoxide) was added. Cells were incubated with rolipram for 10 minutes after which time Compound A was added and the cells were incubated for 60 minutes at room temperature. The final rolipram concentration in the assay was 300 μM and final vehicle concentration was 1.6% (v/v) dimethylsulphoxide. The reaction was stopped by removing supernatants, washing once with 100 μL assay buffer and replacing with 50 μL lysis buffer. The cell monolayer was frozen at −80° C. for 30 minutes (or overnight).
The concentration of cAMP (cyclic adenosine monophosphate) in the cell lysate was determined using AlphaScreen™ methodology. […] The AlphaScreen™ signal was measured using an EnVision spectrophotometer (Perkin-Elmer Inc.) with the recommended manufacturer's settings. cAMP concentrations were determined by reference to a calibration curve determined in the same experiment using standard cAMP concentrations. […] Intrinsic Activity was expressed as a fraction relative to the maximum activity determined for formoterol in each experiment.
(In general: Cyclic AMP is a second messenger, typically raised through Gs and lowered through Gi signalling.)

Where a name gives a salt, the structure may show the parent alone.

T1 sequence (P07550 whole entry): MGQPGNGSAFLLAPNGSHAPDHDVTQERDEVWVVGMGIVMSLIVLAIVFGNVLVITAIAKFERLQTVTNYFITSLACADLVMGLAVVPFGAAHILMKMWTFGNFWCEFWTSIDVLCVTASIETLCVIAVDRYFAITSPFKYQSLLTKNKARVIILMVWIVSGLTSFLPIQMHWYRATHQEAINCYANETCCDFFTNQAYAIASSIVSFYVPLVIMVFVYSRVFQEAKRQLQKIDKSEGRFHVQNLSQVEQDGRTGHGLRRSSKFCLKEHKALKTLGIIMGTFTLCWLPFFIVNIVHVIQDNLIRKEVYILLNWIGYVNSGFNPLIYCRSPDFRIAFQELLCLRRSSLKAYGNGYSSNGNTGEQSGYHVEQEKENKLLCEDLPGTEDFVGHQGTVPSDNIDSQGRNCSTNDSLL

With `O[C@](c1ccccc1)(c1cc(C[N+]23CCC(CC2)[C@@H](Oc2cccc(F)c2)C3)on1)C1CCCCC1` [Example 4, (R)-1-[3-((R)-Cyclohexyl-hydroxy-phenyl-methyl)-isoxazol-5-ylmethyl]-3-(3-fluoro-phenoxy)-1-azonia-bicyclo[2.2.2]octane 2-hydroxy-ethanesulfonate], the GVS mass increase result in data set [1] is on record as “no mass increase”.
Consider `O=S(=O)([O-])c1ccccc1.O[C@](c1ccccc1)(c1cc(C[N+]23CCC(CC2)[C@@H](Oc2ccc(F)cc2)C3)on1)C1CCCCC1` [Example 2, (R)-1-[3-((R)-Cyclohexyl-hydroxy-phenyl-methyl)-isoxazol-5-ylmethyl]-3-(4-fluoro-phenoxy)-1-azonia-bicyclo[2.2.2]octane benzenesulfonate], for which the DVS weight increase in data set [2] was 0.2 % (% w/w).
With `Cc1ccc(O[C@H]2C[N+]3(Cc4cc(C(O)(c5ccccc5)c5ccccc5)no4)CCC2CC3)cc1F.[Br-]` [Example 7, (R)-3-(3-Fluoro-4-methyl-phenoxy)-1-[3-(hydroxy-diphenyl-methyl)-isoxazol-5-ylmethyl]-1-azonia-bicyclo[2.2.2]octane bromide], the GVS mass increase entry in data set [1] is “approximately 0.1%”.
With `O[C@](c1ccccc1)(c1cc(C[N+]23CCC(CC2)[C@@H](Oc2cccc(F)c2)C3)on1)C1CCCCC1.[Cl-]` [Example 3, (R)-1-[3-((R)-Cyclohexyl-hydroxy-phenyl-methyl)-isoxazol-5-ylmethyl]-3-(3-fluoro-phenoxy)-1-azonia-bicyclo[2.2.2]octane chloride], the “GVS mass increase 1st cycle” value in data set [1] (1st cycle) was “approximately 5%”. Further, the “GVS mass increase 2nd cycle” value in data set [1] (2nd cycle) is recorded as ~6.5%.
In the case of `O[C@](c1ccccc1)(c1nnc(C[N+]23CCC(CC2)[C@@H](Oc2ccc(F)cc2)C3)o1)C1CCCCC1.[Br-]` [Example 5, (R)-1-[5-((R)-Cyclohexyl-hydroxy-phenyl-methyl)-[1,3,4]oxadiazol-2-ylmethyl]-3-(4-fluoro-phenoxy)-1-azonia-bicyclo[2.2.2]octane bromide], the GVS mass increase result in data set [1] is reported as “approximately 0.8%”.
Consider `CCN(CC)CCN(CCNCCc1ccc(O)c2[nH]c(=O)sc12)C(=O)CCOCCc1cccc2ccccc12` [BA1, N-[2-(Diethylamino)ethyl]-N-(2-{[2-(4-hydroxy-2-oxo-2,3-dihydro-1,3-benzothiazol-7-yl)ethyl]amino}ethyl)-3-[2-(1-naphthyl)ethoxy]propanamide dihydrobromide], for which the “β2 Int Act” value at Adrenergic β2 stood at 0.8.
Same read-out and setting: the same measure for `O=c1[nH]c2c(O)ccc([C@@H](O)CNCCSCCCNCCc3ccccc3Cl)c2s1` [BA3, 7-[(1R)-2-({2-[(3-{[2-(2-Chlorophenyl)ethyl]amino}propyl)thio]ethyl}amino)-1-hydroxyethyl]-4-hydroxy-1,3-benzothiazol-2(3H)-one dihydrobromide]: 0.8; for `CCN(CC)CCN(CCNCCc1ccc(O)c2[nH]c(=O)sc12)C(=O)CCOCCc1cccc(Cl)c1` [BA2, N-[2-(Diethylamino)ethyl]-N-(2-{[2-(4-hydroxy-2-oxo-2,3-dihydro-1,3-benzothiazol-7-yl)ethyl]amino}ethyl)-3-[2-(3-chlorophenyl)ethoxy]propanamide dihydrobromide]: 0.7.

Source of the values: US20110245293A1, “PHARMACEUTICAL PRODUCT COMPRISING A MUSCARINIC RECEPTOR ANTAGONIST AND A BETA-2-ADRENOCEPTOR AGONIST” (priority 2008, published 2011).
